# US8957062B2, “Substituted cyclopropyl compounds, compositions containing such compounds and methods of treatment” (Merck Sharp & Dohme Corp., priority 2011, dated 2015)
# pEC50: −log10 of the molar value.
# Target: T1, human GPR119 (Homo sapiens, UniProt Q8TDV5)
# T1 sequence (Q8TDV5 1-308 limits assumed): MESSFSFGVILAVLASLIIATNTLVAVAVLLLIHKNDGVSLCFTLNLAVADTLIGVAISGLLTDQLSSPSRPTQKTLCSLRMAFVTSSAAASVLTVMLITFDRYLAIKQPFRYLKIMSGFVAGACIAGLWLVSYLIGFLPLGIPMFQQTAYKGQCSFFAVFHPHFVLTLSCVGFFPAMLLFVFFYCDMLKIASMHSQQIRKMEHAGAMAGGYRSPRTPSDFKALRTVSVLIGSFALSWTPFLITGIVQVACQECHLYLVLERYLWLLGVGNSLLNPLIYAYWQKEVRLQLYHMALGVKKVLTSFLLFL
# Test: Measurement of GPR119 signaling (cAMP assay) in cells stably transfected with human GPR119
# Format: cell-based
# Settings: cAMP stimulation; read-out: GPR119 HumC EC50
# Method: Measurement of GPR119 Signaling (Cyclic AMP (cAMP) Assay)
# The adenylate cyclase assay was constructed following the LANCE™ cAMP Kit (Perkin Elmer, AD0264) instructions.
# The reaction was stopped by incubating with the supplied detection buffer containing the europium chelate of the Eu-SA/Biotin-cAMP tracer for 3 hours. The assay was performed in duplicate in a 384 well plate for duplicate plates and fluorescence was measured at 665 nm. Basal activity was determined using a DMSO control and maximum response was defined as cAMP stimulation produced by an internal agonist control. Standard cAMP concentrations were assayed concurrently for conversion of fluorescence signal to cAMP level. The data was analyzed using 4-parameter curve fit in Microsoft Excel.
# Measurement of GPR119 Signaling (cAMP Homogenous Time Resolved Fluorescence (HTRF) Assay)
# Chinese hamster ovary (CHO) cell lines stably transfected with the permissive guanine nucleotide binding protein alpha 15 (Gα15) and murine GPR119 were maintained in DMEM media containing FBS, penicillin-streptomycin, puromycin, and G418 (geneticin). […] Agonist activation of the GPR119 receptor was measured in receptor transfected cells described above, treated with compounds of this invention, using a commercial homogenous time resolved fluorescence (HTRF) kit for measurement of cAMP (CisBio, Bedford, Mass.). The assay was performed in 96-well half-volume plates (murine) or 384-well plates (human) following the manufacturers instructions. Briefly, suspended cells were incubated with a dose titration of test compound at RT for 60 min, lysed, and incubated with HTRF reagents for an additional 60 min. The plate was read using an Envision multilabel reader (Perkin Elmer) adjusted to read time resolved fluorescence and the cAMP concentrations were extrapolated from a cAMP calibration curve. […] The concentration of test compound required to stimulate a half-maximal response (EC50), and efficacy as compared to an internal agonist control, was determined from a sigmoidal 4-parameter curve fit of the resulting plot of normalized activity versus compound concentration.
row,pEC50,Structure (SMILES)
1,8.66,O=C(Cc1ccc(OCC[C@@H]2C[C@@H]2C2CCN(C(=O)OCC3CCC3)CC2)cc1F)N1CCC1 [Example 73]
2,8.47,Cc1cc(OCC[C@@H]2C[C@@H]2C2CCN(c3nc(C(C)C)no3)CC2)ccc1CC(=O)N(C)C [Example 106]
3,8.70,CC(C)c1noc(N2CCC([C@H]3C[C@H]3CCOc3ccc(CC(=O)N4CCC4)c(C#N)c3)CC2)n1 [Example 105]
4,9.48,COC1CN(C(=O)Cc2c(F)cc(OCC[C@@H]3C[C@@H]3C3CCN(c4nc(C(C)C)no4)CC3)cc2F)C1 [Example 113]
5,8.57,CC1(OC(=O)N2CCC([C@H]3C[C@H]3CCOc3ccc(CC(=O)N4CCC4)c(C#N)c3)CC2)CC1 [Example 70]
6,8.62,CN(C)C(=O)Cc1ccc(OCC[C@@H]2C[C@@H]2C2CCN(C(=O)OC3(C)CC3)CC2)cc1F [Example 66]

# Same assay, conditions: stated in the example text; cAMP stimulation, human GPR119; read-out: GPR119 Human EC50
row,pEC50,Structure (SMILES)
1,8.80,"CC(C)c1nc(N2CCC([C@H]3C[C@H]3CCOc3ccc(CC(=O)N4CC(O)C4)c(F)c3)CC2)no1 [Example 255, 1-[(2-fluoro-4-{2-[(1S,2R)-2-{1-(5-isopropyl-1,2,4-oxadiazol-3-yl)piperidin-4-yl}cyclopropyl]ethoxy}phenyl)acetyl]azetidin-3-ol]"
2,8.70,"O=C(Cc1ccc(OCC[C@@H]2C[C@@H]2C2CCN(C(=O)OCC3CC3)CC2)cc1F)N1CCC1 [Example 61, cyclopropylmethyl-4-((1R,2S)-2-{2-[4-(2-azetidin-1-yl-2-oxoethyl)-3-fluorophenoxy]ethyl}cyclopropyl)piperidine-1-carboxylate]"
3,7.93,"CC(C)c1noc(N2CCC([C@H]3C[C@H]3CCOc3ccc(-n4cnnn4)cc3)CC2)n1 [Example 98, 5-(4-((1R,2S)-2-(2-(4-(1H-tetrazol-1-yl)phenoxy)ethyl)cyclopropyl)piperidin-1-yl)-3-isopropyl-1,2,4-oxadiazole]"

row,Structure (SMILES),pEC50
1,"CC1(OC(=O)N2CCC([C@H]3C[C@H]3CCOc3ccc(CC(=O)N4CCC4)c(F)c3)CC2)CC1 [Example 59, 1-methylcyclopropyl 4-[(1R,2S)-2-(2-{4-[2-(azetidin-1-yl)-2-oxoethyl]-3-fluorophenoxy}ethyl)cyclopropyl]piperidine-1-carboxylate]",8.48

# Same assay, conditions: table column; cAMP stimulation, human GPR119; read-out: GPR119 Human EC50
row,pEC50,Structure (SMILES)
1,8.55,Cc1cc(-n2cnnn2)cnc1OCC[C@@H]1C[C@@H]1C1CCN(C(=O)OCc2ccccc2)CC1 [Example 31]
2,8.60,COCc1noc(N2CCC([C@H]3C[C@H]3CCOc3cc(F)c(CC(=O)N(C)C)c(F)c3)CC2)n1 [Example 206]
3,8.38,Cc1nc2c([nH]1)CN(C(=O)Cc1ccc(OCC[C@@H]3C[C@@H]3C3CCN(c4nc(C(C)C)no4)CC3)cc1F)C2 [Example 192]
4,7.74,O=C(c1c(F)cc(OCC[C@@H]2C[C@@H]2C2CCN(C(=O)OCc3ccccc3)CC2)cc1F)C1CC1 [Example 53]
5,8.66,CCC1(OC(=O)N2CCC([C@H]3C[C@H]3CCOc3ccc(S(C)(=O)=O)cn3)CC2)CC1 [Example 25]
6,8.70,Cc1nc(C#N)cc(OCC[C@@H]2C[C@@H]2C2CCN(C(=O)OC3(C)CC3)CC2)n1 [Example 49]
7,9.40,CC(C)c1noc(N2CCC([C@H]3C[C@H]3CCOc3ccc(-n4cnnn4)cn3)CC2)n1 [Example 231]
8,7.49,CS(=O)(=O)c1ccc(OCC[C@@H]2C[C@@H]2C2CCN(c3nnc(C4CCCC4)o3)CC2)nc1 [Example 249]
9,8.12,CC(C)c1noc(N2CCC([C@H]3C[C@H]3CCOc3ccc(CC(=O)NCC4CC4)c(F)c3)CC2)n1 [Example 155]
10,7.89,COCc1noc(N2CCC([C@H]3C[C@H]3CCOc3ccc(CC(=O)NC4CC4)c(F)c3)CC2)n1 [Example 198]
11,8.31,CC(C)c1noc(N2CCC([C@H]3C[C@H]3CCOc3ccc(CC(=O)N4CCn5ccnc5C4)c(F)c3)CC2)n1 [Example 180]
12,8.52,O=C(c1c(F)cc(OCC[C@@H]2C[C@@H]2C2CCN(c3nnc4ncccn34)CC2)cc1F)C1CC1 [Example 253]
13,8.37,CC(C)c1noc(N2CCC([C@H]3C[C@H]3CCOc3ccc(CC(=O)NC4(C(F)(F)F)CC4)c(F)c3)CC2)n1 [Example 153]
14,8.40,CC(C)(CC(=O)N1CCC([C@H]2C[C@H]2CCOc2ccc(-n3cnnn3)cc2)CC1)C1CC1 [Example 80]
15,8.52,CC(C)c1noc(N2CCC([C@H]3C[C@H]3CCOc3ccc(CC(=O)N4CC(n5cccn5)C4)c(F)c3)CC2)n1 [Example 187]
16,8.15,CC1CC1c1nc(N2CCC([C@H]3C[C@H]3CCOc3ccc(S(C)(=O)=O)cn3)CC2)no1 (some centres unmarked) [Example 239]
17,8.20,CC(C)c1noc(N2CCC([C@H]3C[C@H]3CCOc3ccc(CC(=O)NC4CC4(F)F)c(F)c3)CC2)n1 (some centres unmarked) [Example 152]
18,8.51,COCc1noc(N2CCC([C@H]3C[C@H]3CCOc3cc(F)c(CC(=O)N4CCOCC4)c(F)c3)CC2)n1 [Example 207]
19,8.07,O=C(CCC(F)(F)F)N1CCC([C@H]2C[C@H]2CCOc2ccc(-n3cnnn3)cc2)CC1 [Example 78]
20,9.05,CCS(=O)(=O)c1ccc(OCC[C@@H]2C[C@@H]2C2CCN(C(=O)OC3(C)CC3)CC2)nc1 [Example 27]

row,pEC50,Structure (SMILES)
1,8.96,CC(C)c1noc(N2CCC([C@H]3C[C@H]3CCOc3ccc(CC(=O)N4C[C@H](F)[C@@H](F)C4)c(F)c3)CC2)n1 [Example 158]
2,8.44,CCOC(=O)N1CCC([C@H]2C[C@H]2CCOc2cc(C#N)nc(C)n2)CC1 [Example 45]
3,7.82,CC(C)(C)COC(=O)N1CCC([C@H]2C[C@H]2CCOc2ccc(-n3cnnn3)cc2)CC1 [Example 9]
4,9.00,O=C(OC1CCC1)N1CCC([C@H]2C[C@H]2CCOc2ccc(-n3cnnn3)cc2)CC1 [Example 8]
5,8.77,CC(C)c1noc(N2CCC([C@H]3C[C@H]3CCOc3ccc(CC(=O)N4CCC(F)(F)CC4)c(F)c3)CC2)n1 [Example 148]
6,7.96,Cc1noc(N2CCC([C@H]3C[C@H]3CCOc3ccc(S(C)(=O)=O)cn3)CC2)n1 [Example 213]
7,9.15,CC1(OC(=O)N2CCC([C@H]3C[C@H]3CCOc3cc(F)c(C(=O)C4CC4)c(F)c3)CC2)CC1 [Example 54]
8,8.54,CC(C)c1noc(N2CCC([C@H]3C[C@H]3CCOc3ccc(CC(=O)N4CCc5[nH]nnc5C4)c(F)c3)CC2)n1 [Example 197]
9,7.97,CC(C)c1noc(N2CCC([C@H]3C[C@H]3CCOc3ccc(S(C)(=O)=O)nc3)CC2)n1 [Example 130]
10,8.24,CC(C)(C)OC(=O)N1CCC([C@H]2C[C@H]2CCOc2ccc(S(C)(=O)=O)cn2)CC1 [Example 17]
11,8.59,Cc1cc(OCC[C@@H]2C[C@@H]2C2CCN(c3nc(C(C)C)no3)CC2)ccc1-n1cnnn1 [Example 124]
12,7.74,Cc1cc(CC(=O)N2CCC(C)CC2)cnc1OCC[C@@H]1C[C@@H]1C1CCN(c2nc(C(C)C)no2)CC1 [Example 259]
13,8.22,CC(C)c1noc(N2CCC([C@H]3C[C@H]3CCOc3ccc(CC(=O)N4CCOCC4)cc3)CC2)n1 [Example 133]
14,8.27,CC(C)c1noc(N2CCC([C@H]3C[C@H]3CCOc3ccc(CC(=O)NC4CCCC4)c(F)c3)CC2)n1 [Example 156]
15,8.49,CC(C)c1noc(N2CCC([C@H]3C[C@H]3CCOc3ccc(CC(=O)N4CCc5cncnc5C4)c(F)c3)CC2)n1 [Example 175]
16,8.77,CC(C)c1noc(N2CCC([C@H]3C[C@H]3CCOc3ccc(CC(=O)N(C)Cc4ccon4)c(F)c3)CC2)n1 [Example 164]
17,7.54,CC(C)CC(=O)N1CCC([C@H]2C[C@H]2CCOc2ccc(S(C)(=O)=O)cn2)CC1 [Example 86]
18,8.01,COCc1noc(N2CCC([C@H]3C[C@H]3CCOc3ccc(CC(=O)N4CCOCC4)c(F)c3)CC2)n1 [Example 202]
19,8.64,CC(C)OC(=O)N1CCC([C@H]2C[C@H]2CCOc2ccc(S(C)(=O)=O)c(F)c2)CC1 [Example 40]

# Same assay, conditions: unit inferred; read-out: GPR119 Human EC50
row,pEC50,Structure (SMILES)
1,8.74,Cc1nnc(-c2ccc(OCC[C@@H]3C[C@@H]3C3CCN(C(=O)OC(C)(C)C)CC3)cc2F)o1 [Example 50]
